Biological target: Sodium-dependent dopamine transporter (Rattus norvegicus, UniProt P23977)
Sequence (P23977 whole entry): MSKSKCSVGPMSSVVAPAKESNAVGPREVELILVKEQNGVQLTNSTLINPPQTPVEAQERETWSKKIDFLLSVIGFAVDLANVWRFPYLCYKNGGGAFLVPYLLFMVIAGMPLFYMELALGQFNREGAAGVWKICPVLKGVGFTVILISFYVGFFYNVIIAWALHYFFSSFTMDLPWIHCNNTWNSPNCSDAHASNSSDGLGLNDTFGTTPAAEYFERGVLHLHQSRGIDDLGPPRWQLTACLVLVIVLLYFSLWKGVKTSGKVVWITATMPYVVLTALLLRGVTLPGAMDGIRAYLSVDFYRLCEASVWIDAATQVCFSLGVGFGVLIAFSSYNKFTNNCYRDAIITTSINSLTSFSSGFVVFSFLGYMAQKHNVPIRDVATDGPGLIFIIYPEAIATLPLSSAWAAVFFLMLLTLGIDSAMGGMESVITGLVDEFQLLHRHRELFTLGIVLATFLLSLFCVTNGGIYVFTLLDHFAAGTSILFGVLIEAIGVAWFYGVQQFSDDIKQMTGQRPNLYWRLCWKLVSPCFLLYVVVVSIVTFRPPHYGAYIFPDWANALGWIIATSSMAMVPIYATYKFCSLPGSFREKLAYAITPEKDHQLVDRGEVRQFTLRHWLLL

Compound: Cc1ccc(Sc2ccccc2CN(C)C)c(N)c1 [2-(2-Dimethylaminomethyl-phenylsulfanyl)-5-methyl-phenylamine]
- Ki: 1000 nM

Compound: COC(=O)[C@H]1[C@@H](c2ccc(C)cc2)C[C@@H]2CC[C@H]1N2C/C=C/I
- Ki: 18 nM
